Values belong to the compound of their own block, whether it stands above or below them.
Key:
alpha2A receptor = molecular target: T1, alpha2A receptor (Homo sapiens, UniProt P08913); assay: Receptor Selection and Amplification Technology (RSAT) assay, α2A; type: cell-based; conditions: relative to brimonidine (standard full agonist), NA = not active at concentrations less than 10 micromolar
T1 construct: expressed in transfected cells; host or cells: NIH-3T3
T1 sequence (P08913 1-465): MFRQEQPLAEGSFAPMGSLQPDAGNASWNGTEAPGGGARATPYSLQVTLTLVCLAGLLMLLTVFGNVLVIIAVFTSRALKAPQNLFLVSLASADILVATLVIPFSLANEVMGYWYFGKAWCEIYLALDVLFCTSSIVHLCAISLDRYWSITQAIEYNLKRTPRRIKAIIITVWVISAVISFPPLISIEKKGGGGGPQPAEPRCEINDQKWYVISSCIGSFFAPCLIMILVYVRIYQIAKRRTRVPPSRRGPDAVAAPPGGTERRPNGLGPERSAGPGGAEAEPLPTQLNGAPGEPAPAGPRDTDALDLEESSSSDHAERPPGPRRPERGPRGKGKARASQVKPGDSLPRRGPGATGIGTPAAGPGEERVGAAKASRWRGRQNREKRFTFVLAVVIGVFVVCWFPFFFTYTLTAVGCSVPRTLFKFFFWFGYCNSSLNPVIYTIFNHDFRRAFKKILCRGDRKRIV
Description: (§1) Receptor Selection and Amplification Technology (RSAT) Assay
(§2) The RSAT assay measures a receptor-mediated loss of contact inhibition that results in selective proliferation of receptor-containing cells in a mixed population of confluent cells. The increase in cell number is assessed with an appropriate transfected marker gene such as β-galactosidase, the activity of which can be easily measured in a 96-well format. Receptors that activate the G protein, Gq, elicit this response. Alpha2 receptors, which normally couple to Gi, activate the RSAT response when coexpressed with a hybrid Gq protein that has a Gi receptor recognition domain, called Gq/i5.
(§3) NIH-3T3 cells are plated at a density of 2×10^6 cells in 15 cm dishes and maintained in Dulbecco's modified Eagle's medium supplemented with 10% calf serum. […] After washing with phosphate-buffered saline, β-galactosidase enzyme activity is determined by adding 200 μl of the chromogenic substrate (consisting of 3.5 mM o-nitrophenyl-β-D-galactopyranoside and 0.5% nonidet P-40 in phosphate buffered saline), incubating overnight at 30° C. and measuring optical density at 420 nm. The absorbance is a measure of enzyme activity, which depends on cell number and reflects a receptor-mediated cell proliferation. […]

alpha2C receptor = molecular target: T2, alpha2C receptor (Homo sapiens, UniProt P18825); assay: Receptor Selection and Amplification Technology (RSAT) assay, α2C; type: cell-based; conditions: relative to brimonidine (standard full agonist), NA = not active at concentrations less than 10 micromolar
T2 construct: expressed in transfected cells; host or cells: NIH-3T3
T2 sequence (P18825 1-462): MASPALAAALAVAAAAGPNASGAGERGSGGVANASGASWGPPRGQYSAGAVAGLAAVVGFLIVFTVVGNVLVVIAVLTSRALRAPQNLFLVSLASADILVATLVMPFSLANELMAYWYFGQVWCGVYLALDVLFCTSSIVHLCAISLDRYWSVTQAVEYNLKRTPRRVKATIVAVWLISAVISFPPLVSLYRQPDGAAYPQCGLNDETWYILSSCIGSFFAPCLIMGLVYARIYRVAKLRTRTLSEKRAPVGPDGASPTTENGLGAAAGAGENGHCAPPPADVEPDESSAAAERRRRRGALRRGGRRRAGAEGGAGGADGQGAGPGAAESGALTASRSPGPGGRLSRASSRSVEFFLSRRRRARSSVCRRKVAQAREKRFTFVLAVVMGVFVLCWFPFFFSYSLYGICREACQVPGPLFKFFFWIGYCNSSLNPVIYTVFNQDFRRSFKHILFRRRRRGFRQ
Description: as §1, §2, §3

alpha2B receptor = molecular target: T3, alpha2B receptor (Homo sapiens, UniProt P18089); assay: Receptor Selection and Amplification Technology (RSAT) assay, α2B; type: cell-based; conditions: relative to brimonidine (standard full agonist), NA = not active at concentrations less than 10 micromolar
T3 construct: expressed in transfected cells; host or cells: NIH-3T3
T3 sequence (P18089 1-450): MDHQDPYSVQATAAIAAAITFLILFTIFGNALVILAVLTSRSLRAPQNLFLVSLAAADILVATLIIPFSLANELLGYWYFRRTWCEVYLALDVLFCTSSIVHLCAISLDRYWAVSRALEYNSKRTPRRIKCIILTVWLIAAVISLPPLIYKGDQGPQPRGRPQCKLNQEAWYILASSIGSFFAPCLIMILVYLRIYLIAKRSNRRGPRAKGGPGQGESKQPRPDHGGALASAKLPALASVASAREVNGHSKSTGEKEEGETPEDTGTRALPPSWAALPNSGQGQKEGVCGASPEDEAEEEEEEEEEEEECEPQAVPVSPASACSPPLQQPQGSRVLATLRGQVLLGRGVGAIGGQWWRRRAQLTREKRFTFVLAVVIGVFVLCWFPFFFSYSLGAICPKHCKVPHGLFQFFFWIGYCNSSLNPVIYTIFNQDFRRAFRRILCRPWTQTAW
Description: as §1, §2, §3

locomotor activity [1] = assay: Sedation model, rats (locomotor/exploratory activity); type: in vivo; conditions: for rat locomotor activity: 30 min following dosing (FIG. 3)
Description: (§4) The utility of alpha2-adrenergic agonists is limited by a range of side effects, particularly sedation and cardiovascular depression. The sedative activity of the compounds is assessed by measuring their ability to reduce the exploratory activity of mice and rats when placed in a dark chamber 30 min following dosing. The animal's activity is determined automatically by placing it in a digicom analyzer chamber (Omnitech Electronic). These chambers have photocells criss-crossing the box that are broken as the animal moves around. The computer analyzes this movement and records total activity over a 5-min time period. […] This represents greater than a 300-fold margin of safety (FIG. 4).

locomotor activity [2] = assay: Sedation model, mice (locomotor/exploratory activity); type: in vivo; conditions: oral dose of 3 mg/kg
Description: as §4

Intrinsic activity α2A (alpha2A receptor): 0.9
Intrinsic activity α2C (alpha2C receptor): 1.1
Intrinsic activity α2B (alpha2B receptor): 1.0
Compound: OCC1=CCC[C@@H](Cc2c[nH]c(=S)[nH]2)C1 (single isomer, unassigned) [Compound 5]

Compound: OCC1=CCCC(Cc2c[nH]c(=S)[nH]2)C1 (stereo not drawn) [Compound 1, 4-(3-Hydroxymethyl-cyclohex-3-enylmethyl)-1,3-dihydro-imidazole-2-thione]
sedation / locomotor activity, rats (locomotor activity [1]; general statement (FIG. 3)): does not sedate
rat locomotor activity (locomotor activity [1]; intraperitoneal doses up to at least 3 mg/kg): did not decrease
margin of safety (locomotor activity [1]; non-sedating dose in rats (ip 3 mg/kg, oral 10 mg/kg) versus active dose): ≥ 30 fold
rat locomotor activity (locomotor activity [1]; oral doses up to at least 10 mg/kg): did not decrease

Compound: O=C(CC1CCCC1)OCC1=CCCC(Cc2c[nH]c(=S)[nH]2)C1 (stereo not drawn) [Compound 3, cyclopentyl-acetic acid 5-(2-thioxo-2,3-dihydro-1H-imidazol-4-ylmethyl)-cyclohex-1-enylmethyl ester]
sedation, mice (locomotor activity [2]): did not sedate
sedation, rats (locomotor activity [1]; oral dose of 3 mg/kg): did not sedate

Source: patent US7390829B2, “Alpha-2 adrenergic agonists” (Allergan, Inc., priority 2005, dated 2008)
